Results: article PMC4368485 (Neuron, 2015)

How the values were obtained:
[1] = molecular target: rat GluN1-1a/GluN2B receptors (Rattus norvegicus, UniProt P35439+Q00960); details: Table S6 ref Mott et al., 1998; cited from earlier work
[2] = estimated from the literature ref Yang et al., 2003, Nicholson et al., 2007; cited from earlier work
[3] = tested on: horizontal locomotor activity; experiment: Locomotor activity; type: in vivo, rat; details: at high doses IP; rats; cumulative 2 hr
latency to fall = experiment: Rotorod test; type: in vivo, mouse; details: mice, vehicle 140±13 sec

Chain of rat GluN1-1a/GluN2B receptors (Q00960 27-1482, other chains not shown): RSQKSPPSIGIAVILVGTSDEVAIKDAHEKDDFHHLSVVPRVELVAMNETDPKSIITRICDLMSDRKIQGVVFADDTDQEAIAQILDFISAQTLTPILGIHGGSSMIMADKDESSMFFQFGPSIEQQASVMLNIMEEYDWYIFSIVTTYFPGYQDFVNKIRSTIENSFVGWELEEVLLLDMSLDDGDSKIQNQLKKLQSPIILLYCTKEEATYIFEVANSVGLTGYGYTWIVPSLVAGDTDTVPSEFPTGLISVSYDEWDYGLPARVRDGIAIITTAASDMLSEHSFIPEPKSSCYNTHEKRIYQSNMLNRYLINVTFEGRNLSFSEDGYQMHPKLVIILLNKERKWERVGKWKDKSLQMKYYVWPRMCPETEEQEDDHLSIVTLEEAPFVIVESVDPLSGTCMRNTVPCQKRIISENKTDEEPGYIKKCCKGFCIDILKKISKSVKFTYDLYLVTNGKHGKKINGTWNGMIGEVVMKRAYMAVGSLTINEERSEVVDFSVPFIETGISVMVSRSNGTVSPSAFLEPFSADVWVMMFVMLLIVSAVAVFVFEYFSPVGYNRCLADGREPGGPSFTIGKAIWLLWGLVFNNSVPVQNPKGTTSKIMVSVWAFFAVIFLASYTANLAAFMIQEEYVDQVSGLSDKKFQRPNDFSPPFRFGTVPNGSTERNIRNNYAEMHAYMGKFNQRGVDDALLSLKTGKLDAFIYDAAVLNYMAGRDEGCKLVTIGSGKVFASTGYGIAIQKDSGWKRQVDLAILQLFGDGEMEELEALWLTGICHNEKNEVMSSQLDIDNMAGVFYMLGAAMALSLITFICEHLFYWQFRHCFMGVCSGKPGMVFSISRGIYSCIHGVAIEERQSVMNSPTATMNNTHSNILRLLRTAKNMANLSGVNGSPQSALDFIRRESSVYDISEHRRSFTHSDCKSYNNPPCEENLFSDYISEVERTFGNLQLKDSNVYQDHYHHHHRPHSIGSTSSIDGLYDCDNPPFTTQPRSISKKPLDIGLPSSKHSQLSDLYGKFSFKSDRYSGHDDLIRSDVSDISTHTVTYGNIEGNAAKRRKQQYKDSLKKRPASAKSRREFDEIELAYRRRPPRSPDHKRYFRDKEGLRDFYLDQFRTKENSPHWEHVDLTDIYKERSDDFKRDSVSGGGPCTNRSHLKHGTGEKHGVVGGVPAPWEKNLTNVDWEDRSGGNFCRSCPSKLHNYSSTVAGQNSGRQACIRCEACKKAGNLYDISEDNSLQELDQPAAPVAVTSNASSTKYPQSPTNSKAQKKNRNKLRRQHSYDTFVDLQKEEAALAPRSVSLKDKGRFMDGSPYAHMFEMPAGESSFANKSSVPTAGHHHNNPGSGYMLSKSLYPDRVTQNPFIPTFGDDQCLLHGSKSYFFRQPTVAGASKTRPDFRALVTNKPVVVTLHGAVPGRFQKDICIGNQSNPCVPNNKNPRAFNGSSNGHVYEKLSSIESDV

In the case of `C[C@@H]([C@@H](O)c1ccc(O)cc1)N1CCC(O)(c2ccccc2)CC1` [CP-101,606], the “pH sensitivity of inhibition” value [1] is listed as “lack substantial pH sensitivity” and the “therapeutic ratio (TR) for neuroprotection” value [2] is listed as ~ 4.
For `CC(C(O)c1ccc(O)cc1)N1CCC(Cc2ccccc2)CC1` (centres unmarked) [ifenprodil], the “effect on locomotor activity” value [3] was “reduced” and the “rotorod latency to fall” value (latency to fall; 30 mg/kg IP) was 35 ± 6 s.
For (+)MK-801, the “rotorod latency to fall” value (latency to fall; 0.6 mg/kg IP) was 3 ± 2 s.
